Key:
Test in all cases: Test B pre-/postemergence
Assay type in all cases: in vivo
Set-up in all cases: key: 0 is no effect; 10 is complete control
[1] = system: bedstraw (Galium aparine)
Outline: (§1)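 Compounds in a surfactant-containing, non-phytotoxic solvent blend are applied to freshly planted seed (preemergence) and, concurrently, to seedlings of 2 to 18 cm at 1–4 leaves (postemergence). Plants stay in the greenhouse twelve to sixteen days and are then scored visually from 0 (no effect) to 10 (complete control).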

[2] = system: blackgrass (Alopecurus myosuroides)
Outline: as §1

[3] = system: broadleaf signalgrass (Brachiaria decumbens)
Outline: as §1

[4] = system: cocklebur (Xanthium strumarium)
Outline: as §1

[5] = system: corn (Zea mays)
Outline: as §1

[6] = system: crabgrass (Digitaria sanguinalis)
Outline: as §1

[7] = system: momingglory (Ipomoea hederacea)
Outline: as §1

[8] = system: pigweed (Amaranthus retroflexus)
Outline: as §1

[9] = system: rape (Brassica napus)
Outline: as §1

[10] = system: soybean (Glycine max)
Outline: as §1

[11] = system: sugar beet (Beta vulgaris)
Outline: as §1

[12] = system: velvetleaf (Abutilon theophrasti)
Outline: as §1

[13] = system: wheat (Triticum aestivum)
Outline: as §1

[14] = system: wild oat (Avena fatua)
Outline: as §1

[15] = Preemergence, Rate 62 g/ha, scale of 0 to 10

In the case of `Cc1cnc(-n2cnc(C(F)(F)F)c2)nc1C(=O)c1cccc(OC(F)(F)F)c1` [Compound 63], the “Plant response rating, Bedstraw” value [1, 15] was 2, the “Bedstraw plant response rating” value ([1]; Rate 62 g/ha, Postemergence) was 2 and the “Bedstraw plant response rating” value ([1]; Rate 125 g/ha, Postemergence) was 2. For the same compound, the “Plant response rating, Bedstraw” value ([1]; Rate 125 g/ha, Preemergence) was 4, the “Plant response rating, Bedstraw” value ([1]; Rate 250 g/ha, Postemergence) was 5 and the “Plant response rating, Bedstraw” value ([1]; Rate 250 g/ha, Preemergence) was 4. For the same compound, the “Plant response rating, Bedstraw” value ([1]; Rate 500 g/ha, Postemergence) was 8, the “Plant response rating, Bedstraw” value ([1]; Rate 500 g/ha, Preemergence) was 8 and the “Plant response rating, Blackgrass” value [2, 15] was 2. The “Blackgrass plant response rating” value ([2]; Rate 62 g/ha, Postemergence) was 2, the “Blackgrass plant response rating” value ([2]; Rate 125 g/ha, Postemergence) was 3 and the “Plant response rating, Blackgrass” value ([2]; Rate 125 g/ha, Preemergence) was 3. For the same compound, the “Plant response rating, Blackgrass” value ([2]; Rate 250 g/ha, Postemergence) was 3, the “Plant response rating, Blackgrass” value ([2]; Rate 250 g/ha, Preemergence) was 8 and the “Plant response rating, Blackgrass” value ([2]; Rate 500 g/ha, Postemergence) was 6. For the same compound, the “Plant response rating, Blackgrass” value ([2]; Rate 500 g/ha, Preemergence) was 9, the “B. signalgrass plant response rating” value ([3]; Rate 62 g/ha, Postemergence) was 4 and the “B. signalgrass plant response rating” value ([3]; Rate 62 g/ha, Preemergence) was 4. The “B. signalgrass plant response rating” value ([3]; Rate 125 g/ha, Postemergence) was 3, the “Plant response rating, B. signalgrass” value ([3]; Rate 125 g/ha, Preemergence) was 7 and the “Plant response rating, B. signalgrass” value ([3]; Rate 250 g/ha, Postemergence) was 4. For the same compound, the “Plant response rating, B. signalgrass” value ([3]; Rate 250 g/ha, Preemergence) was 8, the “Plant response rating, B. signalgrass” value ([3]; Rate 500 g/ha, Postemergence) was 5 and the “Plant response rating, B. signalgrass” value ([3]; Rate 500 g/ha, Preemergence) was 9. For the same compound, the “Plant response rating, Cocklebur” value [4, 15] was 1, the “Cocklebur plant response rating” value ([4]; Rate 62 g/ha, Postemergence) was 1 and the “Cocklebur plant response rating” value ([4]; Rate 125 g/ha, Postemergence) was 3. For the same compound, the “Plant response rating, Cocklebur” value ([4]; Rate 500 g/ha, Postemergence) was 8, the “Plant response rating, Cocklebur” value ([4]; Rate 500 g/ha, Preemergence) was 1 and the “Plant response rating, Corn” value [5, 15] was 0. For the same compound, the “Corn plant response rating” value ([5]; Rate 62 g/ha, Postemergence) was 0, the “Corn plant response rating” value ([5]; Rate 125 g/ha, Postemergence) was 2 and the “Plant response rating, Corn” value ([5]; Rate 125 g/ha, Preemergence) was 1. The “Plant response rating, Corn” value ([5]; Rate 250 g/ha, Postemergence) was 2, the “Plant response rating, Corn” value ([5]; Rate 250 g/ha, Preemergence) was 1 and the “Plant response rating, Corn” value ([5]; Rate 500 g/ha, Postemergence) was 2. The “Plant response rating, Corn” value ([5]; Rate 500 g/ha, Preemergence) was 2, the “Plant response rating, Crabgrass” value [6, 15] was 3 and the “Crabgrass plant response rating” value ([6]; Rate 62 g/ha, Postemergence) was 3. For the same compound, the “Crabgrass plant response rating” value ([6]; Rate 125 g/ha, Postemergence) was 3, the “Plant response rating, Crabgrass” value ([6]; Rate 125 g/ha, Preemergence) was 6 and the “Plant response rating, Crabgrass” value ([6]; Rate 250 g/ha, Postemergence) was 4. The “Plant response rating, Crabgrass” value ([6]; Rate 250 g/ha, Preemergence) was 8, the “Plant response rating, Crabgrass” value ([6]; Rate 500 g/ha, Postemergence) was 6 and the “Plant response rating, Crabgrass” value ([6]; Rate 500 g/ha, Preemergence) was 9. For the same compound, the “Plant response rating, Morningglory” value [7, 15] was 2, the “Morningglory plant response rating” value ([7]; Rate 62 g/ha, Postemergence) was 2 and the “Morningglory plant response rating” value ([7]; Rate 125 g/ha, Postemergence) was 4. For the same compound, the “Plant response rating, Morningglory” value ([7]; Rate 125 g/ha, Preemergence) was 7, the “Plant response rating, Morningglory” value ([7]; Rate 250 g/ha, Postemergence) was 10 and the “Plant response rating, Morningglory” value ([7]; Rate 250 g/ha, Preemergence) was 10. For the same compound, the “Plant response rating, Morningglory” value ([7]; Rate 500 g/ha, Postemergence) was 10, the “Plant response rating, Morningglory” value ([7]; Rate 500 g/ha, Preemergence) was 10 and the “Plant response rating, Redroot pigweed” value [8, 15] was 8. The “Redroot pigweed plant response rating” value ([8]; Rate 62 g/ha, Postemergence) was 8, the “Redroot pigweed plant response rating” value ([8]; Rate 125 g/ha, Postemergence) was 9 and the “Plant response rating, Redroot pigweed” value ([8]; Rate 125 g/ha, Preemergence) was 9. For the same compound, the “Plant response rating, Redroot pigweed” value ([8]; Rate 250 g/ha, Postemergence) was 9, the “Plant response rating, Redroot pigweed” value ([8]; Rate 250 g/ha, Preemergence) was 10 and the “Plant response rating, Redroot pigweed” value ([8]; Rate 500 g/ha, Postemergence) was 9. The “Plant response rating, Redroot pigweed” value ([8]; Rate 500 g/ha, Preemergence) was 10, the “Plant response rating, Rape” value [9, 15] was 3 and the “Rape plant response rating” value ([9]; Rate 62 g/ha, Postemergence) was 3. The “Rape plant response rating” value ([9]; Rate 125 g/ha, Postemergence) was 4, the “Plant response rating, Rape” value ([9]; Rate 125 g/ha, Preemergence) was 3 and the “Plant response rating, Rape” value ([9]; Rate 250 g/ha, Postemergence) was 8. The “Plant response rating, Rape” value ([9]; Rate 250 g/ha, Preemergence) was 4, the “Plant response rating, Rape” value ([9]; Rate 500 g/ha, Postemergence) was 8 and the “Plant response rating, Rape” value ([9]; Rate 500 g/ha, Preemergence) was 8. The “Plant response rating, Soybean” value [10, 15] was 0, the “Soybean plant response rating” value ([10]; Rate 62 g/ha, Postemergence) was 0 and the “Soybean plant response rating” value ([10]; Rate 125 g/ha, Postemergence) was 2. For the same compound, the “Plant response rating, Soybean” value ([10]; Rate 125 g/ha, Preemergence) was 0, the “Plant response rating, Soybean” value ([10]; Rate 250 g/ha, Postemergence) was 2 and the “Plant response rating, Soybean” value ([10]; Rate 250 g/ha, Preemergence) was 0. The “Plant response rating, Soybean” value ([10]; Rate 500 g/ha, Postemergence) was 2, the “Plant response rating, Soybean” value ([10]; Rate 500 g/ha, Preemergence) was 0 and the “Plant response rating, Sugarbeets” value [11, 15] was 10. The “Sugarbeets plant response rating” value ([11]; Rate 62 g/ha, Postemergence) was 10, the “Sugarbeets plant response rating” value ([11]; Rate 125 g/ha, Postemergence) was 9 and the “Plant response rating, Sugarbeets” value ([11]; Rate 125 g/ha, Preemergence) was 10. The “Plant response rating, Sugarbeets” value ([11]; Rate 250 g/ha, Postemergence) was 9, the “Plant response rating, Sugarbeets” value ([11]; Rate 250 g/ha, Preemergence) was 10 and the “Plant response rating, Sugarbeets” value ([11]; Rate 500 g/ha, Postemergence) was 9. The “Plant response rating, Sugarbeets” value ([11]; Rate 500 g/ha, Preemergence) was 10, the “Plant response rating, Velvetleaf” value [12, 15] was 2 and the “Velvetleaf plant response rating” value ([12]; Rate 62 g/ha, Postemergence) was 2. For the same compound, the “Velvetleaf plant response rating” value ([12]; Rate 125 g/ha, Postemergence) was 8, the “Plant response rating, Velvetleaf” value ([12]; Rate 125 g/ha, Preemergence) was 2 and the “Plant response rating, Velvetleaf” value ([12]; Rate 250 g/ha, Postemergence) was 8. The “Plant response rating, Velvetleaf” value ([12]; Rate 250 g/ha, Preemergence) was 10, the “Plant response rating, Velvetleaf” value ([12]; Rate 500 g/ha, Postemergence) was 8 and the “Plant response rating, Velvetleaf” value ([12]; Rate 500 g/ha, Preemergence) was 10. For the same compound, the “Plant response rating, Wheat” value [13, 15] was 2, the “Wheat plant response rating” value ([13]; Rate 62 g/ha, Postemergence) was 2 and the “Wheat plant response rating” value ([13]; Rate 125 g/ha, Postemergence) was 2. The “Plant response rating, Wheat” value ([13]; Rate 125 g/ha, Preemergence) was 2, the “Plant response rating, Wheat” value ([13]; Rate 250 g/ha, Postemergence) was 2 and the “Plant response rating, Wheat” value ([13]; Rate 250 g/ha, Preemergence) was 3. The “Plant response rating, Wheat” value ([13]; Rate 500 g/ha, Postemergence) was 2, the “Plant response rating, Wheat” value ([13]; Rate 500 g/ha, Preemergence) was 4 and the “Plant response rating, Wild oats” value [14, 15] was 3. For the same compound, the “Wild oats plant response rating” value ([14]; Rate 62 g/ha, Postemergence) was 3, the “Wild oats plant response rating” value ([14]; Rate 125 g/ha, Postemergence) was 2 and the “Plant response rating, Wild oats” value ([14]; Rate 125 g/ha, Preemergence) was 3. For the same compound, the “Plant response rating, Wild oats” value ([14]; Rate 250 g/ha, Postemergence) was 2, the “Plant response rating, Wild oats” value ([14]; Rate 250 g/ha, Preemergence) was 5 and the “Plant response rating, Wild oats” value ([14]; Rate 500 g/ha, Postemergence) was 2. The “Plant response rating, Wild oats” value ([14]; Rate 500 g/ha, Preemergence) was 8.

Reference: US6525001B1, “Substituted pyrimidine and pyridine herbicides” (Mid-American Commercialization Corporation, priority 1997, dated 2003)
